Reference: patent US20080207645A1, “Pyridothienopyrimidine Derivatives” (priority 2004, published 2008)

Test system: PDE4
Assay: PDE4 Assay Procedure ([3H]-cAMP SPA)
Format: biochemical
Conditions: 15 nM [3H]-cAMP, 1 hour at room temperature, SPA beads
Description: Compounds to be tested were resuspended in DMSO at a stock concentration of 1 mM. […] These dilutions were done in 96-well plates. In some cases, plates containing diluted compounds were frozen before being assayed. In these cases, the plates were thawed at room temperature and stirred for 15 minutes.
Ten microliters of the diluted compounds were poured into a “low binding” assay plate. […] The reaction was initiated by adding ten microliters of a solution containing PDE4. The plate was then incubated under stirring for 1 hour at room temperature. After incubation the reaction was stopped with 50 microlitres of SPA beads, and the reaction was allowed to incubate for another 20 minutes at room temperature before measuring radioactivity using standard instrumentation.
The reaction mixture was prepared by adding 90 ml of H2O to 10 ml of 10× assay buffer (500 mM Tris pH 7.5, 83 mM MgCl2, 17 mM EGTA), and 40 microlitres 1 μCi/μL [3H]-cAMP. SPA beads solution was prepared by adding 500 mg to […] H2O for a final concentration of 20 mg/ml beads and 18 mM zinc sulphate.

Row | SMILES | IC50 [nM]
1 | CC1(C)Cc2c(c(N3CCOCC3)nc3sc4c(NCCN5CCOCC5)ncnc4c23)CO1 [Example 20, 2,2-Dimethyl-5-morpholin-4-yl-N-(2-morpholin-4-ylethyl)-1,4-dihydro-2H-pyrano[4″,3″:4′,5′]pyrido[3′,2′:4,5]thieno[3,2-d]pyrimidin-8-amine] | 26
2 | CC1(C)Cc2c(c(N3CCCC3)nc3sc4c(NCCN5CCOCC5)ncnc4c23)CO1 [Example 27, 2,2-Dimethyl-5-pyrrolidin-1-yl-N-(2-morpholin-4-ylethyl)-1,4-dihydro-2H-pyrano[4″,3″:4′,5′]pyrido[3′,2′:4,5]thieno[3,2-d]pyrimidin-8-amine] | 23
3 | CC1(C)Cc2c(c(N3CCOCC3)nc3sc4c(NCc5ccccn5)ncnc4c23)CO1 [Example 37, 2,2-dimethyl-5-morpholin-4-yl-N-(pyridin-2-ylmethyl)-1,4-dihydro-2H-pyrano[4″,3″:4′,5′]pyrido[3′,2′:4,5]thieno[3,2-d]pyrimidin-8-amine] | 21
4 | CC(C)c1nc2sc3c(NCc4ccccn4)ncnc3c2c2c1COC(C)(C)C2 [Example 46, 2,2-Dimethyl-5-isopropyl-N-(pyridin-2-ylmethyl)-1,4-dihydro-2H-pyrano[4″,3″:4′,5′]pyrido[3′,2′:4,5]thieno[3,2-d]pyrimidin-8-amine] | 14
5 | COCCN(C)c1nc2sc3c(NCc4cccnc4)ncnc3c2c2c1COC(C)(C)C2 [Example 59, N-(2-Methoxyethyl)-N,2,2-trimethyl-N-(pyridin-3-ylmethyl)-1,4-dihydro-2H-pyrano[4″,3″:4′,5′]pyrido[3′,2′:4,5]thieno[3,2-d]pyrimidine-5,8-diamine.] | 61
6 | CCCc1nc2sc3c(NCc4cccnc4)ncnc3c2c2c1COC(C)(C)C2 [Example 72, 2,2-Dimethyl-5-propyl-N-(pyridin-3-ylmethyl)-1,4-dihydro-2H-pyrano[4″,3″:4′,5′]pyrido[3′,2′:4,5]thieno[3,2-d]pyrimidin-8-amine] | 24

Continued by falling IC50, values first:

Row | IC50 [nM] | SMILES
7 | 32 | CC1(C)Cc2c(c(N3CCCC3)nc3sc4c(NCc5ccncc5)ncnc4c23)CO1 [Example 71, 2,2-Dimethyl-N-(pyridin-4-ylmethyl)-5-pyrrolidin-1-yl-1,4-dihydro-2H-pyrano[4″,3″:4′,5′]pyrido[3′,2′:4,5]thieno[3,2-d]pyrimidin-8-amine]
8 | 22 | CC(C)Cc1nc2sc3c(NCc4cccnc4)ncnc3c2c2c1COC(C)(C)C2 [Example 74, 5-Isobutyl-2,2-dimethyl-N-(pyridin-3-ylmethyl)-1,4-dihydro-2H-pyrano[4″,3″:4′,5′]pyrido[3′,2′:4,5]thieno[3,2-d]pyrimidin-8-amine]
9 | 19 | CCCc1nc2sc3c(NCCN4CCOCC4)ncnc3c2c2c1COC(C)(C)C2 [Example 38, 2,2-dimethyl-N-(2-morpholin-4-ylethyl)-5-propyl-1,4-dihydro-2H-pyrano[4″,3″:4′,5′]pyrido[3′,2′:4,5]thieno[3,2-d]pyrimidin-8-amine]
10 | 19 | CC1(C)Cc2c(c(N3CCOCC3)nc3sc4c(NCc5ccncc5)ncnc4c23)CO1 [Example 55, 2,2-Dimethyl-5-morpholin-4-yl-N-(pyridin-4-ylmethyl)-1,4-dihydro-2H-pyrano[4″,3″:4′,5′]pyrido[3′,2′:4,5]thieno[3,2-d]pyrimidin-8-amine]
11 | 13 | CCC1(C)Cc2c(c(N3CCOCC3)nc3sc4c(NCc5cccnc5)ncnc4c23)CO1 (stereo not drawn) [Example 80, 2-Ethyl-2-methyl-5-morpholin-4-yl-N-(pyridin-3-ylmethyl)-1,4-dihydro-2H-pyrano[4″,3″:4′,5′]pyrido[3′,2′:4,5]thieno[3,2-d]pyrimidin-8-amine]
12 | 4.6 | CC1(C)Cc2c(c(N3CCOCC3)nc3sc4c(NCc5cccnc5)ncnc4c23)CO1 [Example 36, 2,2-dimethyl-5-morpholin-4-yl-N-(pyridin-3-ylmethyl)-1,4-dihydro-2H-pyrano[4″,3″:4′,5′]pyrido[3′,2′:4,5]thieno[3,2-d]pyrimidin-8-amine]
